The source made the active and inactive calls. The rule behind the calls is not given here.
test system: Plasmodium berghei; test: Antimalarial activity against Plasmodium berghei KBG 173 infected in ICR/HA Swiss mouse assessed as curative effect at 160 mg/kg, sc administered 72 hrs post infection; format: functional, organism-based; parameters: dose 160 mg/kg; settings: not given

SMILES | Activity
C/C(=N\NC(=S)NC1CCCCCCC1)c1ccccn1 | Active
C/C(=N\NC(=S)NCc1ccccc1C)c1ccccn1 | Active

test system: Plasmodium berghei; test: Antimalarial activity against Plasmodium berghei KBG 173 infected in ICR/HA Swiss mouse assessed as increase in mean survival time at 40 mg/kg, sc administered 72 hrs post infection; format: functional; settings: route subcutaneous

SMILES | MST
C/C(=N\NC(=S)NCCc1ccccc1)c1ccccn1 | -0.2 days
CCN(CC)Cc1cc(NC(=S)N/N=C(\C)c2ccccn2)ccc1O.Cl.O | 2 days
COc1cccc(CNC(=S)N/N=C(\C)c2ccccn2)c1 | 0.3 days
C=CCNC(=S)N/N=C(\C)c1ccccn1 | 0.5 days
C/C(=N\NC(=S)Nc1ccc(C)cc1)c1ccccn1 | 0.3 days
Br.C/C(=N\NC(=S)NCC(C)N(C)C)c1ccccn1 (centres undefined) | 0.1 days
C/C(=N\NC(=S)NCCO)c1ccccn1 | 0.3 days
C/C(=N\NC(=S)Nc1ccc(C(C)C)cc1)c1ccccn1 | 0.5 days
C/C(=N\NC(=S)Nc1c(C)cccc1C)c1ccccn1 | 0.4 days
CCc1ccc(NC(=S)N/N=C(\C)c2ccccn2)cc1 | 0.3 days
C/C(=N\NC(=S)Nc1ccccc1F)c1ccccn1 | 0 days
COc1ccccc1NC(=S)N/N=C(\C)c1ccccn1 | 0.1 days
COc1cccc(NC(=S)N/N=C(\C)c2ccccn2)c1 | 0.3 days
C/C(=N\NC(=S)Nc1ccccc1Cl)c1ccccn1 | 0.5 days
C/C(=N\NC(=S)NCc1ccc(Cl)cc1)c1ccccn1 | 0.5 days
C/C(=N\NC(=S)NC1CCCCCCC1)c1ccccn1 | 1.1 days
C/C(=N\NC(=S)Nc1ccc(Cl)cc1)c1ccccn1 | 0.5 days
C/C(=N\NC(=S)NCc1ccccc1C)c1ccccn1 | 0.1 days
COc1ccccc1CNC(=S)N/N=C(\C)c1ccccn1 | 0.1 days
COc1ccc(CNC(=S)N/N=C(\C)c2ccccn2)cc1 | 0.3 days
C/C(=N\NC(=S)NCc1cccc(F)c1)c1ccccn1 | 0.4 days

test system: Mus musculus; test: Toxicity in ICR/HA Swiss mouse infected with Plasmodium berghei KBG 173 assessed as mortality at 640 mg/kg, sc administered 72 hrs post infection measured for 6 days; format: organism-based; parameters: dose 640 mg/kg, route subcutaneous; settings: in vivo, 144 h

SMILES | Activity
C=CCNC(=S)N/N=C(\C)c1ccccn1 | Toxic
Br.C/C(=N\NC(=S)NCC(C)N(C)C)c1ccccn1 (centres undefined) | Toxic
C/C(=N\NC(=S)NCCO)c1ccccn1 | Toxic

test system: Plasmodium berghei; test: Antimalarial activity against Plasmodium berghei KBG 173 infected in ICR/HA Swiss mouse assessed as curative effect at 320 mg/kg, sc administered 72 hrs post infection; format: functional, organism-based; parameters: dose 320 mg/kg; settings: not given

SMILES | Activity
C/C(=N\NC(=S)Nc1ccc(C)cc1)c1ccccn1 | Active
C/C(=N\NC(=S)Nc1ccccc1F)c1ccccn1 | Active

test system: Plasmodium berghei; test: Antimalarial activity against Plasmodium berghei KBG 173 infected in ICR/HA Swiss mouse assessed as increase in mean survival time at 160 mg/kg, sc administered 72 hrs post infection; format: functional; settings: route subcutaneous

SMILES | MST
C/C(=N\NC(=S)NCCc1ccccc1)c1ccccn1 | 2 days
CCN(CC)Cc1cc(NC(=S)N/N=C(\C)c2ccccn2)ccc1O.Cl.O | 8.8 days
COc1cccc(CNC(=S)N/N=C(\C)c2ccccn2)c1 | 0.9 days
C=CCNC(=S)N/N=C(\C)c1ccccn1 | 3.1 days
C/C(=N\NC(=S)Nc1ccc(C)cc1)c1ccccn1 | 4.5 days
C/C(=N\NC(=S)NCCO)c1ccccn1 | 0.5 days
C/C(=N\NC(=S)Nc1ccc(C(C)C)cc1)c1ccccn1 | 2.1 days
C/C(=N\NC(=S)Nc1c(C)cccc1C)c1ccccn1 | 2 days
CCc1ccc(NC(=S)N/N=C(\C)c2ccccn2)cc1 | 2.1 days
C/C(=N\NC(=S)Nc1ccccc1F)c1ccccn1 | 6.8 days
COc1ccccc1NC(=S)N/N=C(\C)c1ccccn1 | 2 days
COc1cccc(NC(=S)N/N=C(\C)c2ccccn2)c1 | 8.1 days
C/C(=N\NC(=S)Nc1ccccc1Cl)c1ccccn1 | 2.3 days
C/C(=N\NC(=S)NCc1ccc(Cl)cc1)c1ccccn1 | 2.1 days
C/C(=N\NC(=S)NC1CCCCCCC1)c1ccccn1 | 3.4 days
C/C(=N\NC(=S)Nc1ccc(Cl)cc1)c1ccccn1 | 1.7 days
C/C(=N\NC(=S)NCc1ccccc1C)c1ccccn1 | 5.9 days
COc1ccccc1CNC(=S)N/N=C(\C)c1ccccn1 | 1.3 days
COc1ccc(CNC(=S)N/N=C(\C)c2ccccn2)cc1 | 2.9 days
C/C(=N\NC(=S)NCc1cccc(F)c1)c1ccccn1 | 3.4 days

test system: Plasmodium berghei; test: Antimalarial activity against Plasmodium berghei KBG 173 infected in ICR/HA Swiss mouse assessed as increase in mean survival time at 640 mg/kg, sc administered 72 hrs post infection; format: functional; settings: route subcutaneous

SMILES | MST
C/C(=N\NC(=S)NCCc1ccccc1)c1ccccn1 | 8.8 days
COc1cccc(CNC(=S)N/N=C(\C)c2ccccn2)c1 | 5.9 days
C/C(=N\NC(=S)Nc1ccc(C(C)C)cc1)c1ccccn1 | 5.5 days
C/C(=N\NC(=S)Nc1c(C)cccc1C)c1ccccn1 | 11.4 days
CCc1ccc(NC(=S)N/N=C(\C)c2ccccn2)cc1 | 5.7 days
COc1ccccc1NC(=S)N/N=C(\C)c1ccccn1 | 6.6 days
COc1cccc(NC(=S)N/N=C(\C)c2ccccn2)c1 | 9.6 days
C/C(=N\NC(=S)Nc1ccccc1Cl)c1ccccn1 | 8.1 days
C/C(=N\NC(=S)NCc1ccc(Cl)cc1)c1ccccn1 | 6.9 days
C/C(=N\NC(=S)NC1CCCCCCC1)c1ccccn1 | 10.7 days
C/C(=N\NC(=S)Nc1ccc(Cl)cc1)c1ccccn1 | 8.3 days
C/C(=N\NC(=S)NCc1ccccc1C)c1ccccn1 | 8.9 days
COc1ccccc1CNC(=S)N/N=C(\C)c1ccccn1 | 6.9 days
COc1ccc(CNC(=S)N/N=C(\C)c2ccccn2)cc1 | 7.9 days
C/C(=N\NC(=S)NCc1cccc(F)c1)c1ccccn1 | 9.4 days

test system: Plasmodium berghei; test: Antimalarial activity against Plasmodium berghei KBG 173 infected in ICR/HA Swiss mouse assessed as increase in mean survival time at 320 mg/kg, sc administered 72 hrs post infection; format: functional; settings: route subcutaneous

SMILES | MST
C/C(=N\NC(=S)NCCc1ccccc1)c1ccccn1 | 6.6 days
COc1cccc(CNC(=S)N/N=C(\C)c2ccccn2)c1 | 4.5 days
C=CCNC(=S)N/N=C(\C)c1ccccn1 | 3 days
C/C(=N\NC(=S)Nc1ccc(C(C)C)cc1)c1ccccn1 | 5.9 days
C/C(=N\NC(=S)Nc1c(C)cccc1C)c1ccccn1 | 5.8 days
CCc1ccc(NC(=S)N/N=C(\C)c2ccccn2)cc1 | 3.1 days
COc1ccccc1NC(=S)N/N=C(\C)c1ccccn1 | 4.6 days
COc1cccc(NC(=S)N/N=C(\C)c2ccccn2)c1 | 4.3 days
C/C(=N\NC(=S)Nc1ccccc1Cl)c1ccccn1 | 6.1 days
C/C(=N\NC(=S)NCc1ccc(Cl)cc1)c1ccccn1 | 4.3 days
C/C(=N\NC(=S)NC1CCCCCCC1)c1ccccn1 | 4.8 days
C/C(=N\NC(=S)Nc1ccc(Cl)cc1)c1ccccn1 | 4.3 days
C/C(=N\NC(=S)NCc1ccccc1C)c1ccccn1 | 7.7 days
COc1ccccc1CNC(=S)N/N=C(\C)c1ccccn1 | 3.5 days
COc1ccc(CNC(=S)N/N=C(\C)c2ccccn2)cc1 | 5.9 days
C/C(=N\NC(=S)NCc1cccc(F)c1)c1ccccn1 | 5.8 days

test system: Mus musculus; test: Toxicity in ICR/HA Swiss mouse infected with Plasmodium berghei KBG 173 assessed as mortality at 320 mg/kg, sc administered 72 hrs post infection measured for 6 days; format: organism-based; parameters: dose 320 mg/kg, route subcutaneous; settings: in vivo, 144 h

SMILES | Activity
CCN(CC)Cc1cc(NC(=S)N/N=C(\C)c2ccccn2)ccc1O.Cl.O | Toxic

test system: Plasmodium berghei; test: Antimalarial activity against Plasmodium berghei KBG 173 infected in ICR/HA Swiss mouse assessed as increase in mean survival time at 80 mg/kg, sc administered 72 hrs post infection; format: functional; settings: route subcutaneous

SMILES | MST
C/C(=N\NC(=S)NCCc1ccccc1)c1ccccn1 | 0.6 days
CCN(CC)Cc1cc(NC(=S)N/N=C(\C)c2ccccn2)ccc1O.Cl.O | 5.6 days
COc1cccc(CNC(=S)N/N=C(\C)c2ccccn2)c1 | 0.3 days
C=CCNC(=S)N/N=C(\C)c1ccccn1 | 2.3 days
C/C(=N\NC(=S)Nc1ccc(C)cc1)c1ccccn1 | 2.1 days
C/C(=N\NC(=S)Nc1ccc(C(C)C)cc1)c1ccccn1 | 1.9 days
C/C(=N\NC(=S)Nc1c(C)cccc1C)c1ccccn1 | 0.4 days
CCc1ccc(NC(=S)N/N=C(\C)c2ccccn2)cc1 | 1.5 days
C/C(=N\NC(=S)Nc1ccccc1F)c1ccccn1 | 2.6 days
COc1ccccc1NC(=S)N/N=C(\C)c1ccccn1 | 0.4 days
COc1cccc(NC(=S)N/N=C(\C)c2ccccn2)c1 | 0.4 days
C/C(=N\NC(=S)Nc1ccccc1Cl)c1ccccn1 | 0.5 days
C/C(=N\NC(=S)NCc1ccc(Cl)cc1)c1ccccn1 | 0.5 days
C/C(=N\NC(=S)NC1CCCCCCC1)c1ccccn1 | 1.2 days
C/C(=N\NC(=S)Nc1ccc(Cl)cc1)c1ccccn1 | 1.5 days
C/C(=N\NC(=S)NCc1ccccc1C)c1ccccn1 | 2.5 days
COc1ccccc1CNC(=S)N/N=C(\C)c1ccccn1 | 0.3 days
COc1ccc(CNC(=S)N/N=C(\C)c2ccccn2)cc1 | 1.7 days
C/C(=N\NC(=S)NCc1cccc(F)c1)c1ccccn1 | 1.4 days

Source: ChEMBL document CHEMBL3244320, “2-Acetylpyridine thiosemicarbazones. 1. A new class of potential antimalarial agents” (J Med Chem, 1979)
